US20220142948A1, “COMPOSITIONS AND METHODS FOR MODULATING METABOLIC REGULATORS OF T CELL PATHOGENICITY” (The Broad Institute, Inc., priority 2019, published 2022)
Entries after “also recorded” stand apart in the source; their conditions may differ.

Tests used:
[1] = tested on: MOG35-55 specific T cells; experiment: Antigen-specific recall response of draining lymph node cells to MOG35-55 (thymidine incorporation, Legendplex); assay type: in vivo, mouse
Procedure: FIG. 37A-37I—Targeting ODC1 and SAT1 alleviate EAE. (A) Schematics of the polyamine pathway; (B-D) The effects of chemical inhibition of ODC1 by DFMO on EAE. Wildtype mice were immunized with MOG35-55/CFA to induce experimental autoimmune encephalomyelitis and followed for clinical scoring. DFMO were provided in drinking water from day 0 for 10 days in experimental group. B, Clinical score over time. […] C, Antigen-specific cell proliferation is measured by thymidine incorporation after culturing cells isolated from draining lymph node of mice (d15 post immunization) with increasing dose of MOG35-55 peptide for 3 days. D, Flow cytometric analysis of intracellular Foxp3 expression in T cells isolated from CNS at day 15 post immunization. (E-I) The effects of genetic perturbation of SAT1. E, The effects of SAT1 deficiency on metabolome. Abundance of metabolites in the polyamine pathway were determined by LC/MS based metabolomics. Th17n and Th17p cells were differentiated in vitro from naïve cells isolated from WT or SAT1^−/− mice. (F-I) The effects of SAT1 deficiency on EAE. EAE were induced as in (B) in wildtype and SAT1^fl/flCD4^cre mice. F, Clinical score (left) and histological score (right) showing the number of CNS infiltrates show representative experiment with 5 WT and 8 CKO mice. G-H, Cells were isolated from draining lymph node of mice (d23 post immunization) and co-cultured with increasing dose of MOG35-55 peptide for 3 days. Antigen-specific cell proliferation is measured by thymidine incorporation (G) and antigen-specific cytokine secretion by legendplex (H). I, Flow cytometry analysis of intracellular transcription factor expression in CD4 T cells isolated from CNS day 15 post immunization. Linear regression analysis (b, c, f, g), two-way anova (e) and student t test (d, i) were used for statistical analysis.
FIG. 46A-46J—EGCG exacerbates and DHEA ameliorates Th17-induced EAE in vivo. 2D2 TCR-transgenic Th17 cells were adoptively transferred after differentiation in vitro in the presence of an inhibitor or vehicle as indicated. (A, C, G) Clinical outcome of EAE; (B, D) Histological score based on cell infiltrates in meninges and parenchyma of CNS; (E, F) Draining lymph node (cervical) from respective mice were isolated and pulsed with increasing dose of MOG35-55 peptide for 3 days and (E) subjected to thymidine incorporation assay; or (F) measurement of cytokine secretion by Legendplex and flow cytometry. Concentrations were normalized through division by the respective response to no antigen control (H-I) Independent pathological report of CNS isolated from mice with EAE at end point (d35 for EGCG experiments; d28 for DHEA experiment); Optic nerves were not found in the histologic section from one animal in the EGCG+IL-23 group. (J) Representative histology of spinal cord and spinal nerve roots. […] PC, posterior column; PH, posterior horn. Individual mouse numbers are indicated. […] All are H. & E., 40× objective. Three similar experiments were performed.

[2] = tested on: Th17 cells (Th17n, Th17p); experiment: Legendplex analysis of cytokines in culture supernatant; assay type: cell-based, mouse
Procedure: Legendplex. Cytokine concentrations in supernatants of in vitro cultures were analyzed by the LegendPlex Mouse Th Cytokine Panel (13-plex) (BioLegend) according to the manufacturer's instructions and analyzed on a FACS LSR II (BD Biosciences).
Seahorse assay was performed and seahorse media was prepared following manufacturer instructions (Agilent). Cells were re-stimulated with PMA/ionomycin for four hours in the presence of brefaldin and monensin before analysis for cytokines by intracellular cytokine staining. Cytokine concentrations in supernatants of in vitro cultures were analyzed by the LegendPlex Mouse Th Cytokine Panel (13-plex) (BioLegend) according to the manufacturer's instructions and analyzed on a FACS LSR II (BD Biosciences).

[3] = tested on: Th17 cells (Th17n, Th17p); experiment: T cell differentiation culture and flow cytometry (intracellular cytokine and transcription factor staining, CellTrace proliferation)
Procedure: Naïve CD4+CD44-CD62L+CD25-T cells were sorted using BD FACSAria sorter and activated with plate-bound anti-CD3 (1 μg/ml) and antiCD28 antibodies (2 μg/ml) in the presence of cytokines at a concentration of 5×10^5 cells/ml.
Naïve CD4+CD44-CD62L+CD25− T cells with or without including IL-17A.GFP+ were sorted using BD FACSAria sorter and activated with plate-bound anti-CD3 and antiCD28 antibodies (each 1 μg/ml) in the presence of cytokines at a concentration of 5×10^5 cells/ml. For T cell differentiations the following combinations of cytokines were used: pathogenic Th17 (Th17p): 25 ng/ml rmIL-6, 20 ng/ml rmIL-1b (both Miltenyi Biotec) and 20 ng/ml rmIL-23 (R&D systems); non-pathogenic Th17 (Th17n): 25 ng/ml rmIL-6 and 2 ng/ml of rhTGFb1 (Miltenyi Biotec). For differentiation experiments, cells were harvested at 72 hours and were performed in the presence or absence of 50 μM EGCG (Selleck Chemicals), 50 μM DHEA, 40 μM DCA, 10 μM Shikonin (all Sigma) as indicated.
Proliferation was assessed by staining with CellTrace Violet (Thermo Fisher Scientific) per manufacturer's instructions. All stainings were analyzed on a FACS LSR II (BD Bioscience) and using FlowJo software.

[4] = supernatant from both Th17n and Th17p cultures
[5] = cMAF fl/fl CD4cre Th17 cells vs control
[6] = mice transferred with EGCG-treated Th17n cells

In the case of NCCC[C@](N)(C(=O)O)C(F)F [DFMO, 2-(difluoromethyl)ornithine], the “antigen-specific recall response / proliferation (thymidine incorporation)” value ([1]; draining lymph node of DFMO treated EAE animals) was “decreases H3 incorporation; also recorded: decreases proliferation of immune cells; also recorded: significantly reduced”, the “DFMO-dependent upregulation of IL-10” value ([2]; Th17n cells, loss of JMJD3, supernatant) was “reduced” and the IL-13 ([2]; pathogenic Th17 cells) was “decreased”. The IL-9 ([2]; protein, Th17n and Th17p cultures) was “promoted; also recorded: promoting”, the IL-17A [2, 4] was “significantly inhibited” and the IL-17F [2, 4] was “significantly inhibited”. For the same compound, the IFNg ([2]; supernatant, Th17n and Th17p) was “did not consistently influence”, the IL-5 ([2]; supernatant, Th17n and Th17p) was “did not consistently influence” and the IL-10 ([2]; supernatant, Th17n and Th17p) was “did not consistently influence”. For the same compound, the IL-13 ([2]; supernatant, Th17n and Th17p) was “did not consistently influence”, the TNFa ([2]; supernatant, Th17n and Th17p) was “did not consistently influence” and the “IL-17+ cells” value ([3]; DFMO at 4-5 days only (expansion phase)) was “no change”. For the same compound, the “IL-17+ cells” value ([3]; DFMO at both days 1-3 and days 4-5) was “decrease”, the “IL-17+ cells” value ([3]; DFMO at days 1-3 only (differentiation)) was “decrease” and the “IL-17 positive CD4 T cells” value ([3]; FACS, Th17 condition not stated) was “decreased”. The cell proliferation ([3]; Th17 cultures) was “less cell proliferation; also recorded: reduced cell proliferation”, the “frequency of Foxp3+ cells / Foxp3 expression” value ([3]; Th17n (non-pathogenic) condition) was “increase; also recorded: increased frequency” and the “upregulation of Foxp3 by DFMO” value ([3]; Th17n cells, absence of JMJD3 (JMJD3fl/flCD4cre)) was “partially abrogated”. The Rorgt expression ([3]; Th17p cells) was “suppressed”, the Tbet expression ([3]; Th17p cells) was “suppressed” and the “effect of DFMO on Foxp3 upregulation” value [3, 5] was “partially rescued”. For the same compound, the “effect of DFMO on expression of IL-17” value [3, 5] was “did not impact”, the “frequency of IL-17+ cells” value ([3]; cells that have divided just once) was “significantly reduced” and the “FoxP3 CD4 T cells” value ([3]; condition not stated) was “increase”. The IL-17 expression ([3]; intracellular staining, both Th17n and Th17p cells) was “suppresses IL-17 expression; also recorded: significantly inhibited” and the Rorgt expression ([3]; pathogenic and non-pathogenic Th17 cells) was “did not consistently alter; also recorded: does not alter”.

epigallocatechin-3-gallate [EGCG] was tested, and the “antigen-specific T cell proliferation” value [1, 6] was “only a small difference”, the “secretion of IL-6 in response to antigen” value [1, 6] was “significant increase” and the “secretion of IL-17F in response to antigen” value [1, 6] was “significant increase”. For the same compound, the “secretion of IL-17 in response to antigen” value [1, 6] was “significant increase”, the “secretion of IL-22 in response to antigen” value [1, 6] was “significant increase” and the “cytokine profile / cytokine production” value ([2]; glycolysis enzyme inhibitors, Th17 cell cultures) was “retained their cytokine profile”. For the same compound, the IFNg expression ([3]; Th17n cells) was “upregulation”, the IL-10 ([3]; Th17n cells) was “suppression” and the Tbet expression ([3]; Th17n cells) was “upregulation”. For the same compound, the “IL-17 positive CD4 T cells / IL-17 expression” value ([3]; glycolysis enzyme inhibitors, non-pathogenic or pathogenic Th17 conditions, cells after one division) was “increase”.
